Results: patent US6838436B1, “Inhibitors of proteasomal activity for stimulating bone growth” (Osteoscreen Inc., priority 1998, dated 2005)
Read-outs that look alike come from different tables or passages of the source. Where a SMILES comes first, the peptide text is derived from it. [ ]: non-standard residue; d: D form. The star is where a group is joined. Nva = CCC[C@H](N)C(=O)O; Cbz = O=C(OCc1ccccc1)*; OtBu = CC(C)(C)O*

What was measured:
[1] = molecular target: T1, 20S thermophila proteasome (Methanosarcina thermophila, UniProt Q9P992); assay: biochemical
T1 construct: purchased CalBiochem, San Diego, Calif
T1 sequence (Q9P992 10-210): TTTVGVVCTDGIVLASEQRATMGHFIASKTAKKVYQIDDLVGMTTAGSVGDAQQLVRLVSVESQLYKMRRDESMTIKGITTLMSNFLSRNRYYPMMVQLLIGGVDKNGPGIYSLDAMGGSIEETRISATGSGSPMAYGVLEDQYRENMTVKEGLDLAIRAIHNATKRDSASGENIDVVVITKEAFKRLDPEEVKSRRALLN
T1 sequence (Q59565 1-247 partner): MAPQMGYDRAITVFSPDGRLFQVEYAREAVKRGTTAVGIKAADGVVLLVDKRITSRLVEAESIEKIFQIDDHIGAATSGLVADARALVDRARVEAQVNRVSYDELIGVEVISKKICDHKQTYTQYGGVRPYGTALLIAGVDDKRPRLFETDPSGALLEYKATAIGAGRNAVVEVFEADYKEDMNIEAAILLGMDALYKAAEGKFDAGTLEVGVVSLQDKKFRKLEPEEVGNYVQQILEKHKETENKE
Method: The assay involves incubating the potential inhibitor with 20S thermophila proteasomes which, in purified form, are commercially available, with a fluorogenic peptide substrate. The presence of an inhibitor will reduce the amount of fluorescence generated by the action of the proteasome fraction on the fluorogenic peptide. This assay is described in further detail in Coux, O., et al., N Rev Biochem (1996) 65:801; Adams, J., et al., Cancer Res (1999) 59:2615; and Craiu, A., et al., J Biol Chem (1997) 272:13437. Further reports are set forth in Hilt, W., et al., Trans Biochem Sci (1996) 21:96; Peters, J., Trends Biochem Sci (1994) 19:377; Maupin-Furlow, J. A., et al., J Biol Chem (1995) 270:28617; and Jensen, T. J., et al., Cell (1995) 83:129. Fluorogenic substrates and purified proteasomes are available, for example, from CalBiochem, San Diego, Calif.
Purified 20S thermophila proteasomes and the fluorogenic peptide substrate Suc-Leu-Leu-Val-Tyr-AMC (SEQ ID NO:3) are available from CalBiochem, San Diego, Calif. Briefly, serial dilutions of the inhibitor to be tested were mixed with proteasome solution at a concentration of proteasome of 0.01 mg/ml. After 30 min incubation at 37° C., substrate solution at a final concentration of 25-30 μg/ml was added and the mixture incubated at 37° C. and then read at 15 min, 30 min, and 60 min in a Fluoroscan instrument. The percentage diminution in fluorescence in the presence as compared to the absence of inhibitor is then calculated.

[2] = test system: hair follicles of skin explants; assay: Cultured skin explants from 5 day old mice, hair follicle diameter and elongation (Example 11); assay type: cell-based, C3H/HeS1c mice; details: 72 hours
Method: Cultured skin explants from 5 day old mice cultured for 72 hours were treated with proteasome inhibitors, non-proteasomal proteases and non-proteasomal inhibitors of NF-κB and effects on hair follicle diameter and follicle elongation were determined according to the method of Kamiya, T., et al., J Derm Sci (1998) 17:54-60. Skin slices from the dorsal skin of 5 day old C3H/HeS1c mice were cultured in 1 ml of αMEM and 0.1% BSA for 72 hours and then assessed for changes in hair follicle diameter and hair elongation under an inverted microscope, using image analysis. […] Thus, the chymotrypsin-like activity of the proteasome is the catalytic component of the proteasome that is responsible for the effects of these compounds on hair follicle differentiation and hair growth. Only proteasome inhibitors had discernable effects on these parameters.

[3] = test system: hair follicles of skin explants; assay: Skin explants from mice during telogen (Example 16); assay type: cell-based; details: 72 hours
Excerpt: In the untreated control explants, the follicles were few and small.

neonatal mouse calvaria = assay: Neonatal mouse calvaria assay (in vitro / ex vivo) for bone formation; assay type: cell-based, ICR Swiss white mouse; details: for EC50: read-out: Bone Formation (ED50-μM)
Method: An assay for bone resorption or bone formation is similar to that described by Gowen M. & Mundy G., J Immunol (1986) 136:2478-82. Briefly, four days after birth, the front and parietal bones of ICR Swiss white mouse pups are removed by microdissection and split along the sagittal suture. In an assay for resorption, the bones are incubated in BGJb medium (Irvine Scientific, Santa Ana, Calif.) plus 0.02% (or lower concentration) β-methylcyclodextrin, wherein the medium also contains test or control substances. The medium used when the assay is conducted to assess bone formation is Fitton and Jackson Modified BGJ Medium (Sigma) supplemented with 6 μg/ml insulin, 6 μg/ml transferrin, 6 ng/ml selenous acid, calcium and phosphate concentrations of 1.25 and 3.0 mM, respectively, and ascorbic acid to a concentration of 100 μg/ml is added every two days. The incubation is conducted at 37° C. in a humidified atmosphere of 5% CO2 and 95% air for 96 hours.
Following this, the bones are removed from the incubation media and fixed in 10% buffered formalin for 24-48 hours, decalcified in 14% EDTA for 1 week, processed through graded alcohols; and embedded in paraffin wax. Three […] sections of the calvaria are prepared. Representative sections are selected for histomorphometric assessment of bone formation or bone resorption. Bone changes are measured on sections cut 200 μm apart. Osteoblasts and osteoclasts are identified by their distinctive morphology.
Selected compounds and appropriate controls were assayed in vitro (ex vivo) for bone formation activity (described above in “Techniques for Neonatal Mouse Calvaria Assay (in vitro)). Histomorphometrical assessments of ex vivo calvaria were carried out using an OsteoMetrics bone morphometry measurement program, according to the manufacturer's instructions. Measurements were determined using either a 10- or 20-fold objective with a standard point counting eyepiece graticule.
New bone formation was determined (using a 10× objective) by measuring the new bone area formed in one field in 3 representative sections of each bone (4 bones per group). Each measurement was carried out ½ field distance from the end of the suture. Both total bone and old bone area were measured. Data were expressed as new bone area in μm^2.
Osteoblast numbers are determined by point counting. The number of osteoblast cells lining the bone surface on both sides of the bone are counted in one field using a 20× objective. Data are expressed as osteoblast numbers/mm of bone surface. […]

[4] = Mus musculus, calvarial assay in vitro
[5] = read-out: Proteasome Activity (ED50-μM)
[6] = read-out: % Proteasomal Activity

Compound	IC50 [1]	new bone formation in the in vitro calvarial assay (neonatal mouse calvaria)	EC50 (neonatal mouse calvaria; [4])	EC50 [1]	EC50 [1, 5]	remaining activity at 0.002 µM [1, 6]	remaining activity at 0.004 µM [1, 6]	remaining activity at 0.008 µM [1, 6]	remaining activity at 0.016 µM [1, 6]	remaining activity at 0.032 µM [1, 6]	remaining activity at 0.062 µM [1, 6]	remaining activity at 0.125 µM [1, 6]	remaining activity at 0.25 µM [1, 6]	remaining activity at 0.5 µM [1, 6]	remaining activity at 1 µM [1, 6]	also measured
CC[C@H](C)[C@H](NC(=O)[C@H]([C@@H](C)CC)N(C)C(C)=O)C(=O)N[C@H](C(=O)N[C@@H](CC(C)C)C(=O)[C@@]1(C)CO1)[C@@H](C)O [Epoxomicin]	~60 nM	–	–	–	–	–	–	–	–	–	–	–	–	–	–	effective in concentrations as low as [2]: 12.5 nM; hair follicle diameter and follicle elongation ([3]; 25 nM): obvious increase in hair follicle diameter, and follicle elongation
CC(=O)N[C@@H](CSC(=O)[C@]1([C@@H](O)C(C)C)NC(=O)[C@H](C)[C@@H]1O)C(=O)O [Lactacystin, lactacystin]	–	showed new bone formation	1 µM	1.5 µM	–	–	–	–	–	–	–	–	–	–	–	effect on hair follicle differentiation and hair growth ([2]; dose not given): effectively stimulated hair follicle differentiation and enhanced hair growth
CCC[C@@H](C=O)NC(=O)[C@H](CC(C)C)NC(=O)[C@H](CC(C)C)NC(=O)OCc1ccccc1 [MG-115, N-carbobenzoyl-Leu-Leu-Nva-CHO] (Cbz-Leu-Leu-[Nva]-aldehyde)	–	positive results although less dramatic than those of simvastatin	1 µM	–	1 µM	–	–	–	–	–	–	–	–	–	–	–
CC(C)C[C@@H](C=O)NC(=O)[C@@H](CC(C)C)NC(=O)[C@H](CC(C)C)NC(=O)OCc1ccccc1 [MG-132, N-carbobenzoyl-Leu-Leu-Leu-CHO] (Cbz-Leu-[dL]-Leu-aldehyde)	–	showed new bone formation	–	–	0.3 µM	101%	99%	101%	100%	98%	90%	87%	73%	57%	44%	EC50 (neonatal mouse calvaria; Mus musculus): 0.5 µM; remaining activity at 2 µM [1, 6]: 19%; effect on hair follicle differentiation and hair growth ([2]; 0.5 μM): effectively stimulated hair follicle differentiation and enhanced hair growth
CC[C@H](C)[C@H](NC(=O)OCc1ccccc1)C(=O)N[C@@H](CCC(=O)OC(C)(C)C)C(=O)N[C@@H](C)C(=O)N[C@H](C=O)CC(C)C [PSI, N-carbobenzoyl-Ile-Glu-(OtBu)-Ala-Leu-CHO] (Cbz-IE(OtBu)AL-aldehyde)	~60 nM	–	0.03 µM	0.035 µM	–	100%	95%	94%	86%	76%	54%	30%	11%	6%	5%	inducing bone formation compared with BMP-2 and bFGF (neonatal mouse calvaria): as good as, or better than, BMP-2 and bFGF; effect on hair follicle differentiation and hair growth ([2]; 12.5 nM): effectively stimulated hair follicle differentiation and enhanced hair growth; hair follicle diameter and follicle elongation ([3]; 50 nM): obvious increase in hair follicle diameter, and follicle elongation
simvastatin	–	showed new bone formation	–	–	–	–	–	–	–	–	–	–	–	–	–	EC50 (neonatal mouse calvaria; calvarial assay in vitro): 0.2 µM
